The source of these data is patent US8173658B2 (priority 2005, dated 2012).

pIC50: −log10 of the molar value. Where a name gives a salt, the structure may show the parent alone.

In data set [1] the target is α7-subtype of nicotinic receptors (Rattus norvegicus, UniProt Q05941). Nature of the data set: biochemical. In kind it is binding.
Sequence of α7-subtype of nicotinic receptors (Q05941 23-502): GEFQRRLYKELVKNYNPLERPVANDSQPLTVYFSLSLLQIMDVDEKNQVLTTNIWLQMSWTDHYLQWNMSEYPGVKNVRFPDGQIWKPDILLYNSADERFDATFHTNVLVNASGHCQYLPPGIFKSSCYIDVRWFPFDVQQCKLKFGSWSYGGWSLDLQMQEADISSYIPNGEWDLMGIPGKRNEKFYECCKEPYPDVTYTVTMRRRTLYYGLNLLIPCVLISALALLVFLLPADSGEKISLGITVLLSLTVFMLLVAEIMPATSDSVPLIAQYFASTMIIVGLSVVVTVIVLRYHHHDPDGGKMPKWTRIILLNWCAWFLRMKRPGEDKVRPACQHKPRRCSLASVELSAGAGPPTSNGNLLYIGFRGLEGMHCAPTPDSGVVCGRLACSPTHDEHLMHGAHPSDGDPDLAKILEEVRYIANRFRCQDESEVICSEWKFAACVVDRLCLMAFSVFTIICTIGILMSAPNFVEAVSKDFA

Compound `CCN1C2CCCC1CN(c1ccc(-c3ccccc3)nn1)C2` [Compound D1, 9-Ethyl-3-(6-phenyl-pyridazin-3-yl)-3,9-diaza-bicyclo[3.3.1]nonane] had a negative-log IC50 (pIC50) in data set [1] of over 6.00. Still for that read-out and setting: with `CN1C2CCCC1CN(c1ccc(-c3ccccc3)nn1)C2` [Compound A1, 9-Methyl-3-(6-phenyl-pyridazin-3-yl)-3,9-diaza-bicyclo[3.3.1]nonane] the figure was over 6.00. Compound `CN1C2CCCC1CN(c1ccc(-c3ccsc3)nn1)C2` [Compound C1] gave a pIC50 in data set [1] of over 6.00. Compound `CN1C2CCCC1CN(c1ccc(-c3ccccc3)nn1)C2` (as salt: fumaric acid salt) [Compound A1, 9-Methyl-3-(6-phenyl-pyridazin-3-yl)-3,9-diaza-bicyclo[3.3.1]nonane] came in with a melting point of 187 to 188 °C.

What is called pIC50 is the negative decadic logarithm of the IC50, by convention in mol/L. A low value points to a large IC50. By melting point is commonly meant the temperature, or range, at which the solid turns liquid.
